Measurements published in US20110118120A1, “SYNERGISTIC HERBICIDAL COMPOSITION CONTAINING AMINOPYRALID AND SULFONYLUREAS” (Dow AgroSciences LLC, priority 2009, published 2011).

Test system: milk thistle (Sonchus oleraceus; SONOL)
Assay: Postemergence herbicidal activity of mixtures under field conditions (percent visual weed control)
Format: in vivo
Conditions: postemergence foliar, spring wheat
Protocol: These trials were conducted under field conditions in Northern New South Wales, Australia. Trials sites were located in commercially grown fields of spring wheat (Triticum aestivum). The wheat crop was grown using normal cultural practices for fertilization, seeding, and maintenance to ensure good growth of the crop and the weeds. The trial was conducted using normal research methodology. Trial plots were marked out measuring 3 meters (m) by 10 m. All treatments were applied using a randomized complete block trial design with 4 replications per treatment. The trial sites had naturally occurring populations of weeds present. The weed spectrum included, but was not limited to, milk thistle (Sonchus oleraceus; SONOL); wire-weed (Polygonum aviculare; POLAV); turnip weed (Rapistrum rugosum; RASRU); Medick, Medicago spp. (MEDSS); Patersons curse (Echium plantagineum; EPHIL). The weeds were treated with postemergence foliar applications when they were between cotyledons and 8 true leaves.
Treatments consisted of tank mixes of soluble granules of aminopyralid potassium salt and commercially available formulations of metsulfuron-methyl (Ally™ herbicide, water dispersible granules) and MCPA iso-octyl (emulsifiable concentrate). The ‘carrier’ application volume was using 100 liters per hectare (L/ha) of water. […]

SMILES	% Control SONOL Ob (percent control observed) (Metsulfuron 3 g ai/ha alone) [%]	% Control SONOL Ob (percent control observed) (Aminopyralid 3.75 g ae/ha alone) [%]
COC(=O)c1ccccc1S(=O)(=O)NC(=O)Nc1nc(C)nc(OC)n1 [Metsulfuron, metsulfuron-methyl]	29	–
Nc1cc(Cl)nc(C(=O)O)c1Cl [Aminopyralid, aminopyralid]	–	18
